This passage reports IC50 results from patent publication US20170226081A1, “GLUCOSE TRANSPORT INHIBITORS” (Bayer Pharma Aktiengesellschaft, priority 2014, published 2017).

Experiment [1] concerns the target T1, GLUT1 (Homo sapiens, UniProt P11166).
T1 construct: endogenous in cells
T1 sequence (P11166 1-492): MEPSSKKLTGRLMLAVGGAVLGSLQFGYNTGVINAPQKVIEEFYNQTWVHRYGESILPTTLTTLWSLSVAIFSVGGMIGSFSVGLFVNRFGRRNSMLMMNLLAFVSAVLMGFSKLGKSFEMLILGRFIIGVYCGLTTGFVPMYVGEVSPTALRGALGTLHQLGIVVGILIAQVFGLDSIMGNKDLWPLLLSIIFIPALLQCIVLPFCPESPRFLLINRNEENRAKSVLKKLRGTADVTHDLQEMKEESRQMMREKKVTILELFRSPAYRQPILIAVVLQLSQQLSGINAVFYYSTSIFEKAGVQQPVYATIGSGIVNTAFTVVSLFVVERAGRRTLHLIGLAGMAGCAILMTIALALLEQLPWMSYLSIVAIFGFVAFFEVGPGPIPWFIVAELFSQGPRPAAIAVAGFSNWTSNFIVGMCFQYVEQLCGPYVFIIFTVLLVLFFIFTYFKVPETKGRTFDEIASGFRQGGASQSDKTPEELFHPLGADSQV
Put plainly: Indirect measurement of GLUT activity by quantification of intracellular ATP levels (glucose induced ATP increase). The note with it: DLD1 cells; 1 mM glucose, 1 uM Rotenone, 15 min; standardized to cytochalasin B IC50 values; read-out: IC50 regarding glucose induced ATP increase (GLUT1 inhibition). It counts as cell-based. The text has this: (§1) It is well known that a combination of small-molecule inhibitors of mitochondrial electron transport chain and glucose catabolism synergistically suppress ATP production and impair cellular viability (Ulanovskaya et al., 2008, 2011; Liu, et al. 2001). We therefore used DLD1 or CHO-K1 cells in combination with an oxidative phosphorylation inhibitor to identify GLUT inhibitors. Cell lines were maintained in DMEM medium supplemented with 10% FCS and 1% Penicillin-Streptomycin solution and 2% Glutamax. The cells were treated with trypsin and seeded into 384 plates at a density of 4000 cells/well. The cells were then cultured overnight in glucose free media containing 1% FCS to reduce intracellular ATP levels. After 24 h the cells were incubated at 37° C. containing the appropriate glucose or in case of GLUT2 fructose concentration (1 mM and 30 mM respectively) with or without compounds and 1 uM Rotenone for 15 min. The CellTiter-Glo® Luminescent Cell Viability Assay from Promega was then used to measure ATP levels. Compounds able to reduce the ATP Levels within 15 min of glucose application were considered to be glucose uptake inhibitors.

Experiment [2] has as its target T2, GLUT2 (Homo sapiens, UniProt P11168).
T2 sequence (P11168 1-524): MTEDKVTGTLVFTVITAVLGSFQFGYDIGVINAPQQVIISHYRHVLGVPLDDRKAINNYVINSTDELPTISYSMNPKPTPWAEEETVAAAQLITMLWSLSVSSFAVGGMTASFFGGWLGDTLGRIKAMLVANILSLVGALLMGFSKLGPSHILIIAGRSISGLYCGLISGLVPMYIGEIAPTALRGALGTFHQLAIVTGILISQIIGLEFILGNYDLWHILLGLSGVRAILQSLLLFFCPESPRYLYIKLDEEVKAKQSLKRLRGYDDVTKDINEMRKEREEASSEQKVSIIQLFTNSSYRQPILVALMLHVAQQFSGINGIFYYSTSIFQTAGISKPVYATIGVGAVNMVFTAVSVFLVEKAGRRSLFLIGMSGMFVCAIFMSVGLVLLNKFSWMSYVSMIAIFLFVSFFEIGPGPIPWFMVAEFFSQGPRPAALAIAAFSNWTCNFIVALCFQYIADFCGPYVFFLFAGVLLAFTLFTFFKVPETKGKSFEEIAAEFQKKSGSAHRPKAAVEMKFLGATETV
Put plainly: Indirect measurement of GLUT activity by quantification of intracellular ATP levels (fructose induced ATP increase). The experiment is classed as cell-based. The following applies: 30 mM fructose, 1 uM Rotenone, 15 min; read-out: IC50 regarding fructose induced ATP increase (GLUT2 inhibition).
Source text: as §1

One may read the IC50 as the midpoint of a concentration-inhibition curve. Take `Cc1ccc2nc(C)cc(C(=O)Nc3cn(Cc4ccc(F)cc4)nc3C)c2c1` [Example 1, N-[1-(4-fluorobenzyl)-3-methyl-1H-pyrazol-4-yl]-2,6-dimethylquinoline-4-carboxamide]: the IC50 amounted to 0.061 µM in experiment [1] and 5.21 µM in experiment [2].

On to `Cc1nn(Cc2ccc(C#N)cc2)cc1NC(=O)c1cc(C(N)=O)nc2ccccc12` [Example 9, N^4-[1-(4-cyanobenzyl)-3-methyl-1H-pyrazol-4-yl]quinoline-2,4-dicarboxamide], for which the IC50 in experiment [1] worked out at 0.0043 µM; in experiment [2] it was 36.1 µM.

For `Cc1nn(CC2CCCCC2)cc1NC(=O)c1cc(C(N)=O)nc2ccccc12` [Example 57, N^4-[1-(cyclohexylmethyl)-3-methyl-1H-pyrazol-4-yl]quinoline-2,4-dicarboxamide], the IC50 in experiment [1] came out at 0.556 µM.

In the case of `Cc1nn(Cc2ccncc2)cc1NC(=O)c1cc(C(N)=O)nc2ccccc12` [Example 58, N^4-[3-methyl-1-(pyridin-4-ylmethyl)-1H-pyrazol-4-yl]quinoline-2,4-dicarboxamide], in experiment [1], the IC50 is 0.702 µM.

With `CCc1nn(Cc2ccc(C#N)cc2)cc1NC(=O)c1cc(C(N)=O)nc2cc(F)ccc12` [Example 59, N^4-[1-(4-cyanobenzyl)-3-ethyl-1H-pyrazol-4-yl]-7-fluoroquinoline-2,4-dicarboxamide], in experiment [1], the IC50 amounted to 0.034 µM.

In the case of `CCc1nn(Cc2ccc(C#N)cc2)cc1NC(=O)c1cc(C(N)=O)nc2ccccc12` [Example 60, N^4-[1-(4-cyanobenzyl)-3-ethyl-1H-pyrazol-4-yl]quinoline-2,4-dicarboxamide], in experiment [1], the IC50 was determined as 0.023 µM.

In the case of `CC(C)c1nn(Cc2ccc(C#N)cc2)cc1NC(=O)c1cc(C(N)=O)nc2cc(F)ccc12` [Example 62, N^4-[1-(4-cyanobenzyl)-3-isopropyl-1H-pyrazol-4-yl]-7-fluoroquinoline-2,4-dicarboxamide], in experiment [1], the IC50 is 0.12 µM.

`Cc1nn(Cc2ccn(C)n2)cc1NC(=O)c1cc(C(N)=O)nc2ccccc12` [Example 63, N^4-{3-methyl-1-[(1-methyl-1H-pyrazol-3-yl)methyl]-1H-pyrazol-4-yl}quinoline-2,4-dicarboxamide]: the IC50 in experiment [1] is 0.19 µM.

With `CCc1noc(Cn2cc(NC(=O)c3cc(C(F)(F)F)nc4ccc(Br)cc34)c(C)n2)n1` [Example 64, 6-bromo-N-{1-[(3-ethyl-1,2,4-oxadiazol-5-yl)methyl]-3-methyl-1H-pyrazol-4-yl}-2-(trifluoromethyl)quinoline-4-carboxamide], in experiment [1], the IC50 is 0.391 µM.

With `CNC(=O)c1nc(Cn2cc(NC(=O)c3cc(C(N)=O)nc4ccccc34)c(C)n2)no1` [Example 65, N^4-(3-methyl-1-{[5-(methylcarbamoyl)-1,2,4-oxadiazol-3-yl]methyl}-1H-pyrazol-4-yl)quinoline-2,4-dicarboxamide], the 50% inhibitory concentration (IC50) in experiment [1] amounted to 0.301 µM.

As to `CCc1noc(Cn2cc(NC(=O)c3cc(C(N)=O)nc4ccccc34)c(C)n2)n1` [Example 66, N^4-{1-[(3-ethyl-1,2,4-oxadiazol-5-yl)methyl]-3-methyl-1H-pyrazol-4-yl}quinoline-2,4-dicarboxamide], the half-maximal inhibitory concentration (IC50) in experiment [1] is 0.43 µM.

In the case of `CCS(=O)(=O)N1CCC(Cn2cc(NC(=O)c3cc(C(F)(F)F)nc4ccc(Br)cc34)c(C)n2)CC1` [Example 67, 6-bromo-N-(1-{[1-(ethylsulfonyl)piperidin-4-yl]methyl}-3-methyl-1H-pyrazol-4-yl)-2-(trifluoromethyl)quinoline-4-carboxamide], the half-inhibitory concentration (IC50) in experiment [1] came to 0.665 µM.

In the case of `Cc1nc(Cn2cc(NC(=O)c3cc(C(N)=O)nc4ccccc34)c(C)n2)cs1` [Example 68, N^4-{3-methyl-1-[(2-methyl-1,3-thiazol-4-yl)methyl]-1H-pyrazol-4-yl}quinoline-2,4-dicarboxamide], the half-inhibitory concentration (IC50) in experiment [1] turned out to be 0.26 µM.

As for `CNC(=O)c1nc(Cn2cc(NC(=O)c3cc(C(F)(F)F)nc4ccc(Br)cc34)c(C)n2)no1` [Example 69, 6-bromo-N-(3-methyl-1-{[5-(methylcarbamoyl)-1,2,4-oxadiazol-3-yl]methyl}-1H-pyrazol-4-yl)-2-(trifluoromethyl)quinoline-4-carboxamide], the IC50 in experiment [1] was found to be 0.064 µM.

For the molecule `Cc1nc(Cn2cc(NC(=O)c3cc(C(F)(F)F)nc4ccc(Br)cc34)c(C)n2)cs1` [Example 70, 6-bromo-N-{3-methyl-1-[(2-methyl-1,3-thiazol-4-yl)methyl]-1H-pyrazol-4-yl}-2-(trifluoromethyl)quinoline-4-carboxamide], the 50% inhibitory concentration (IC50) in experiment [1] stood at 0.275 µM.

For the molecule `Cc1cc(Cn2cc(NC(=O)c3cc(C(F)(F)F)nc4ccc(Br)cc34)c(C)n2)no1` [Example 71, 6-bromo-N-{3-methyl-1-[(5-methyl-1,2-oxazol-3-yl)methyl]-1H-pyrazol-4-yl}-2-(trifluoromethyl)quinoline-4-carboxamide], the IC50 in experiment [1] was 0.294 µM.

On to `CCS(=O)(=O)N1CCC(Cn2cc(NC(=O)c3cc(C(N)=O)nc4ccccc34)c(C)n2)CC1` [Example 72, N^4-(1-{[1-(ethylsulfonyl)piperidin-4-yl]methyl}-3-methyl-1H-pyrazol-4-yl)quinoline-2,4-dicarboxamide], for which, in experiment [1], the IC50 worked out at 0.247 µM.

With `Cc1nn(Cc2ccn(C)n2)cc1NC(=O)c1cc(C(F)(F)F)nc2ccc(Br)cc12` [Example 73, 6-bromo-N-{3-methyl-1-[(1-methyl-1H-pyrazol-3-yl)methyl]-1H-pyrazol-4-yl}-2-(trifluoromethyl)quinoline-4-carboxamide], in experiment [1], the IC50 is 0.172 µM.

In the case of `Cc1cc(Cn2cc(NC(=O)c3cc(C(N)=O)nc4ccccc34)c(C)n2)no1` [Example 74, N^4-{3-methyl-1-[(5-methyl-1,2-oxazol-3-yl)methyl]-1H-pyrazol-4-yl}quinoline-2,4-dicarboxamide], in experiment [1], the IC50 was 0.153 µM.
